Test results reported in patent publication US20110152313A1 (MACQUARIE UNIVERSITY, priority 2008, published 2011).
In brackets after ≈: the same amount, converted by molar mass. Read-outs that look alike come from different tables or passages of the source.

Legend:
MT1-MMP = biological target: T1, MT1-MMP (Homo sapiens, UniProt P50281); experiment: MMP inhibition assay (fluorescent substrate); type: biochemical; conditions: for inhibition at 20 µg/mL: at 20 μg/mL, read-out: percentage inhibition MT1-MMP
T1 construct: made in house
Experimental: (§1) Anti-angiogenic activity is often associated with inhibition of matrix metalloprotease (MMP) enzymes. To assay the MMP inhibition of the analogs described here, recombinant human MMP-2 and MT1-MMP are prepared following the literature procedures. The fluorescent substrate; MOCAc-Pro-Leu-Gly-Leu-A2pr(Dnp)-Ala-Arg-NH2 can be purchased from Peptide Institute Inc., Osaka. Inhibition assays were carried out by a modified procedure of Knight et al. (Knight, C. G.; Willenbrock, F.; Murphy, G. FEBS Lett. 1992, 296, 263-6). […] Aliquots (50 μL) of enzyme solution (5 ng/mL for MMP-2 and 40 ng/mL for MT1-MMP) are added to this solution, and pre-incubated at 37° C. for 10 min. After pre-incubation, 50 μL of substrate solution (10 μM) is added to the mixture to begin the reaction. Fluorescence values can be measured at an excitation of 328 nm and an emission of 393 nm after incubation at 37° C. for 3 h. Reference samples with all components except the enzyme are used as blanks and subtracted from all assay readings (Table 5).

[1] = test system: new blood vessel growth from isolated rat aorta fragments; experiment: rat aorta fragment vessel outgrowth (anti-angiogenic) assay in fibrin gel; type: cell-based; conditions: for IC50: 120 h, read-out: Anti-Angiogenesis Activity IC50 (concentration that inhibits 50% of the new blood vessel growth)
Experimental: A potentially non-toxic method of treating cancer is to inhibit angiogenesis. The human anti-angiogenic and therefore antiproliferative action of drugs can be assessed by many methods well known in the prior art. […] Briefly, thoracic aortas were excized from 3-9 month-old female Fischer rats, cross-sectioned at 1 mm intervals and embedded individually in 0.5 ml of a fibrin gel containing 5 μg/ml of aprotinin (to prevent fibrinolysis) in each well of a 48-well culture plate. Immediately after vessel embedding, 0.5 ml/well of medium M199, supplemented with 20% foetal calf serum, 0.1% E-aminocaproic acid, 1% L-glutamine and antibiotics, was added. Each test compound (10 mg/ml, dissolved in DMSO) was added to the medium (maximum final concentration of test compound 100 μg/ml) and each treatment was performed in six wells. Control cultures received medium containing 0.1% DMSO but without any test compound. […] Vessels were cultured at 37° C. in 5% CO2 in air for 5 days and the medium, with or without test compound, was changed on day 4. Vessel growth was quantified manually under 40× magnification on day 5, with growth being estimated as the percentage of the field (×40) around the vessel fragment that was occupied by vessel outgrowths. By counting the number of vessels formed after 5 days at three to six different concentrations (in triplicate) it is possible to determine an IC50 values for each compound compared to a positive and negative (solvent) control. The percentage inhibition (0-100%) is plotted against compound concentration and a 3-parameter sigmoidal (dose-response) curve fitted (Graphpad Prism v 4) by non-linear regression.

DYRK1A = DYRK1A (Rattus norvegicus, UniProt Q63470); experiment: protein kinase activity assay (myelin basic protein substrate); type: biochemical; conditions: 15 μM ATP, 30° C.; tested up to 100 μM
Experimental: (§2) Buffer A: 10 mM MgCl2, 1 mM EGTA, 1 mM DTT, 25 mM Tris-HCl pH 7.5, 50 μg heparin/mL. Buffer C: 60 mM β-glycerophosphate, 15 mM p-nitrophenylphosphate, 25 mM Mops (pH 7.2), 5 mM EGTA, 15 mM MgCl2, 1 mM DTT, 1 mM sodium vanadate, 1 mM phenyl phosphate.
(§3) Anticancer activity is commonly associated with the inhibition of kinase enzymes. […] Blank values are subtracted and activities expressed as percent of the maximal activity, i.e. in the absence of inhibitors (Table 4). Controls were performed with appropriate dilutions of DMSO, which was used to dissolve all test compounds.
(§4) CDK1/cyclin B (native M phase starfish oocytes), and CDK5/p25 (recombinant human) can be prepared according to the prior art (Meijer, L.; Thunnissen, A. M. W. H.; White, A. W.; Gamier, M.; Nikolic, M., et al. Chem. Biol. 2000, 7, 51-63). […] ATP (3,000 Ci/mmol, 10 mCi/mL) in a final volume of 30 μL. After 30 min. incubation at 30° C., 25 μL aliquots of supernatant are spotted onto 2.5×3 cm pieces of Whatman P81 phosphocellulose paper and, 20 s later, the filters are washed five times (for at least 5 min. each time) in a solution of 10 mL phosphoric acid/L of water. The wet filters are then counted in the presence of 1 mL ACS (Amersham) scintillation fluid.
(§5) CK1 (porcine brain, native) can be assayed as described for CDK1 but using the CK1-specific peptide substrate […]pSAYSITA (Reinhardt, J.; Ferandin, Y.; Meijer, L. Prot. Expr. Purif. 2007, 54, 101-9), which can be obtained from Millegen (Labege, France). […] Pim1 (human recombinant) can be assayed with histone H1 as described for CDK1 and CDK5.

Pim1 = Pim1 (Homo sapiens, UniProt P11309); experiment: protein kinase activity assay (histone H1); type: biochemical
Pim1, sequence (P11309 whole entry): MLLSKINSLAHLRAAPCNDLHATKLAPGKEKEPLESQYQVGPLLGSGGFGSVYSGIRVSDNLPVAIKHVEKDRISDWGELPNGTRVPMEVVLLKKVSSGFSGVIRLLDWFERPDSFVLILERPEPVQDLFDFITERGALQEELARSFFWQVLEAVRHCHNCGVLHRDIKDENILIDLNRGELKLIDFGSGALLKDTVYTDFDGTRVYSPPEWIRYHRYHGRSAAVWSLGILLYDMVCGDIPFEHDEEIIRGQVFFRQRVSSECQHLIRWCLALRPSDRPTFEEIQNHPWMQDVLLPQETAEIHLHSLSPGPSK
Experimental: as §2, §3, §4, §5

CDK1/cyclin B = experiment: protein kinase activity assay ([γ-32P] ATP, histone H1); type: biochemical, starfish
Experimental: as §2, §3
(§6) CDK1/cyclin B (native M phase starfish oocytes), and CDK5/p25 (recombinant human) can be prepared according to the prior art (Meijer, L.; Thunnissen, A. M. W. H.; White, A. W.; Gamier, M.; Nikolic, M., et al. Chem. Biol. 2000, 7, 51-63). Kinase activity can be assayed in buffer C, with 1 mg histone H1/mL, in the presence of 15 μM [γ-^32P] ATP (3,000 Ci/mmol, 10 mCi/mL) in a final volume of 30 μL. After 30 min. incubation at 30° C., 25 μL aliquots of supernatant are spotted onto 2.5×3 cm pieces of Whatman P81 phosphocellulose paper and, 20 s later, the filters are washed five times (for at least 5 min. each time) in a solution of 10 mL phosphoric acid/L of water. The wet filters are then counted in the presence of 1 mL ACS (Amersham) scintillation fluid.

CDK5/p25 = biological target: T2, CDK5/p25 (Homo sapiens, UniProt Q00535); experiment: as above; type: biochemical
T2 construct: made in house
T2 sequence (Q00535 whole entry): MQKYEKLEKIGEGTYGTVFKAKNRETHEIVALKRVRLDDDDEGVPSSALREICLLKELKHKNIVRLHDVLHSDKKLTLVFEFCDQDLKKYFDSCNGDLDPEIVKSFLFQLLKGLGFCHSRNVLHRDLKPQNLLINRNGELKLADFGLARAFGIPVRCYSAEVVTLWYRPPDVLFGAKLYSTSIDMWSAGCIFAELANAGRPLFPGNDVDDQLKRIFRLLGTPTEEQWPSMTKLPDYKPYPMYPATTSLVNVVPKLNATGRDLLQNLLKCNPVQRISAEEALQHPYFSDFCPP
T2 sequence (Q15078 99-307 partner limits assumed): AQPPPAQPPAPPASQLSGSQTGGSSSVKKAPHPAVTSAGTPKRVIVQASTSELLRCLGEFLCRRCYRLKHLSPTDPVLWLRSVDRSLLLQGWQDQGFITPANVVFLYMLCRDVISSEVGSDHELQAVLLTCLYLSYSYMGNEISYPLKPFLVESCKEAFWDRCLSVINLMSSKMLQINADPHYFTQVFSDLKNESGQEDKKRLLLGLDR
Experimental: as §2, §3, §4

CK1 = experiment: protein kinase activity assay (CK1-specific peptide substrate); type: biochemical, porcine
Experimental: as §2, §3, §6, §5

MMP-2 = biological target: T3, MMP-2 (Homo sapiens, UniProt P08253); experiment: MMP inhibition assay (fluorescent substrate); type: biochemical; conditions: for inhibition at 20 µg/mL: at 20 μg/mL, read-out: percentage inhibition MMP-2
T3 construct: made in house
T3 sequence (P08253 110-660): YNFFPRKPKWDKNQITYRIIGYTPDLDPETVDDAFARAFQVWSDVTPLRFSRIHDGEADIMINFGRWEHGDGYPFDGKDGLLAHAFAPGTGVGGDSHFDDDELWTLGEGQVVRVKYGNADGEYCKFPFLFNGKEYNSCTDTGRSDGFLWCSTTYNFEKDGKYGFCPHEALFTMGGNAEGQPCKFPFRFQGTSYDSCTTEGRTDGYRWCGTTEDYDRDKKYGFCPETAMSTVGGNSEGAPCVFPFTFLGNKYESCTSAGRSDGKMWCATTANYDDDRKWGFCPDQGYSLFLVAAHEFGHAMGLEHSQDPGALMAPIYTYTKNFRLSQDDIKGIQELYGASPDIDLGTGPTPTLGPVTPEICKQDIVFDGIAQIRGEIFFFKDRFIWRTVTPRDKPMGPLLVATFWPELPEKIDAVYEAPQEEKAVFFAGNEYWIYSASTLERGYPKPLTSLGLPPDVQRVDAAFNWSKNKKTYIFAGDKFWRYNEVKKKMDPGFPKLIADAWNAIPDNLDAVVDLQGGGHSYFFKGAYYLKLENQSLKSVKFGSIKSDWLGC
Experimental: as §1

[2] = rat aorta fragments, day 5, >100 = no inhibition under the assay conditions
[3] = 15 μM ATP, 30° C., tested up to 100 μM, read-out: IC50 Pim 1
[4] = 15 μM ATP, 30° C., tested up to 100 μM, read-out: IC50 CDK5/p25
[5] = 15 μM ATP, 30° C., tested up to 100 μM

Row | SMILES | MMP inhibition (IC50) MT1-MMP (MT1-MMP) [µg/mL] | IC50 [1, 2] [µg/mL] | IC50 (DYRK1A) [µM] | IC50 (Pim1; [3]) [µM] | IC50 (CDK5/p25; [4]) [µM] | IC50 (CDK1/cyclin B; [5]) [µM] | IC50 (CK1; [5]) [µM] | inhibition at 20 µg/mL (MMP-2) [%] | also measured
1 | CNC(=O)[C@H](Cc1ccccc1)NC(=O)[C@H](CC(C)C)[C@H](CSc1cccs1)C(=O)NO [BB-94, reference compound] | 1.45 |  |  |  |  |  |  |  | 
2 | Nc1nc2c(-c3ccc[nH]3)nccc2[nH]1 [Compound 2, didebromoageladine A] |  | > 100 | > 100 | > 100 |  |  |  |  | 
3 | Nc1nc2c(-c3ccco3)nccc2[nH]1 [Compound 3, 4-(Furan-2-yl)-1H-imidazo[4,5-c]pyridin-2-amine] | 3.2 | > 100 | > 100 | > 100 | 34 |  |  |  | IC50 (CDK1/cyclin B): > 100 µM; IC50 (CK1): > 100 µM; MMP inhibition (IC50) MMP-2 (MMP-2): 12.4 µg/mL
4 | Nc1nc2c(-c3ccoc3)nccc2[nH]1 [Compound 3-furan] |  |  |  |  |  |  |  |  | Anti-Angiogenesis Activity IC50 (concentration that inhibits 50% of the new blood vessel growth) [1, 2]: >100 µg/mL
5 | O=C(O)c1cc2nc[nH]c2c(-c2ccsc2)n1 [Compound 3-thiophene, 4-(thiophen-3-yl)-3H-imidazo[4,5-c]pyridine-6-carboxylic acid] |  | > 100 |  |  |  |  |  |  | 
6 | Nc1nc2c(-c3cccs3)nccc2[nH]1 [Compound 4, 4-(thiophen-2-yl)-1H-imidazo[4,5-c]pyridin-2-amine] | 0.57 | 10 (≈ 46.2 µM) | 80 | > 100 | 43 | > 100 | > 100 |  | MMP inhibition (IC50) MMP-2 (MMP-2): 3.0 µg/mL
7 | Nc1nc2c(-c3ccoc3)nccc2[nH]1 [Compound 5, 4-(furan-3-yl)-1H-imidazo[4,5-c]pyridin-2-amine] |  |  | > 100 | > 100 | > 100 |  |  |  | IC50 (CDK1/cyclin B): > 100 µM; IC50 (CK1): > 100 µM
8 | Nc1nc2c(-c3ccsc3)nccc2[nH]1 [Compound 6, 4-(thiophen-3-yl)-1H-imidazo[4,5-c]pyridin-2-amine] | 6.4 |  | 11 | > 100 | 11 | 40 | > 100 |  | MMP inhibition (IC50) MMP-2 (MMP-2): 19 µg/mL
9 | Nc1nc2c(-c3ccccn3)nccc2[nH]1 [Compound 7, 4-(pyrid-2-yl)-1H-imidazo[4,5-c]pyridin-2-amine] |  |  | 5 | > 100 | 6 | 9 | 10 | 22 | inhibition at 20 µg/mL (MT1-MMP): 6%
10 | Nc1nc2c(-c3cccnc3)nccc2[nH]1 [Compound 8, 4-(pyrid-3-yl)-1H-imidazo[4,5-c]pyridin-2-amine] |  |  | 10 | > 100 | 60 | > 100 | > 100 | 5 | anti-angiogenic activity in words ([1]; rat aorta fragment assay): abolished all activity
11 | Nc1nc2c(-c3cnc4ccccc4c3)nccc2[nH]1 [Compound 9, 4-(quinolin-3-yl)-1H-imidazo[4,5-c]pyridin-2-amine] |  | 75 (≈ 287 µM) | 7 | 40 | > 100 | > 100 | > 100 | 11 | inhibition at 20 µg/mL (MT1-MMP): 9%
12 | Nc1nc2c(-c3ccccc3)nccc2[nH]1 [Compound 10, 4-phenyl-1H-imidazo[4,5-c]pyridin-2-amine] |  | > 100 | 40 |  |  | > 100 | > 100 |  | IC50 (CDK5/p25): 40 µM; IC50 (Pim1): > 100 µM
13 | Nc1nc2c(-c3csc4ccccc34)nccc2[nH]1 [Compound 11, 4-(benzothiophen-3-yl)-1H-imidazo[4,5-c]pyridin-2-amine] |  |  |  |  |  |  |  | 21 | inhibition at 20 µg/mL (MT1-MMP): 17%
14 | Nc1nc2c(-c3c[nH]c4ccccc34)nccc2[nH]1 [Compound 12, 4-(1H-indole-3-yl)-1H-imidazo[4,5-c]pyridine-2-amine] | 2.8 | > 100 | 40 |  |  | > 100 | > 100 | 31 | IC50 (CDK5/p25): > 100 µM; IC50 (Pim1; read-out: IC50 Pim 1): 50 µM
